Data published in ChEMBL document CHEMBL5728589, “Inhibitors of RIP1 kinase and methods of use thereof” (2021).
pKi: −log10 of the molar value. Where “and” joins values, the source holds several entries; their conditions need not be identical. Equal values may be shown once.

Target: T1, Receptor-interacting serine/threonine-protein kinase 1 (Homo sapiens, UniProt Q13546)
T1 sequence (Q13546 whole entry): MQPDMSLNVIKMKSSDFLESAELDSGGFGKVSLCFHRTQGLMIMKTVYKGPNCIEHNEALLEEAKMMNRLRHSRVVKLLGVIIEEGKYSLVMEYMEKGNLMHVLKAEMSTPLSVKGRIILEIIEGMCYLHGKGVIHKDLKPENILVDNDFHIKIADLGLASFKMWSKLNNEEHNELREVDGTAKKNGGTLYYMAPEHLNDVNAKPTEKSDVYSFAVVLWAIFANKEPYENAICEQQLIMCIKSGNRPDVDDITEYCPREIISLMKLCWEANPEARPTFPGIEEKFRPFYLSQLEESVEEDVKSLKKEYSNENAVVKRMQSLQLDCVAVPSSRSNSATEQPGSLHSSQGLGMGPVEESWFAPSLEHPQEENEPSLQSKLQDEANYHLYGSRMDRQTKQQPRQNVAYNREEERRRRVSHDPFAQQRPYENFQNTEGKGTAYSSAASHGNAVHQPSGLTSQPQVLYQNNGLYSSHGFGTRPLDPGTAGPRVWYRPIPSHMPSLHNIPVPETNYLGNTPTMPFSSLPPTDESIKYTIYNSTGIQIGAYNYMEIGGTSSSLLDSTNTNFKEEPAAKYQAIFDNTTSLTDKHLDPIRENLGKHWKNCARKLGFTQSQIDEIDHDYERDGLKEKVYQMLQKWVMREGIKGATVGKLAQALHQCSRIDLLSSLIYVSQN
Test: Enzyme Assay: The ability of the receptor interacting protein kinase (RIPK1) to catalyze the hydrolysis of adenosine-5′-triphosphate (ATP) is monitored using the Transcreener ADP (adenosine-5′-diphosphate) assay (BellBrook Labs).

pKi: 7.68 and 7.85
Structure (SMILES): CCC(F)(F)[C@H]1CCc2nc(C(=O)N[C@H]3CCc4cc(F)cc(F)c4NC3=O)nn21
